From patent US20230416291A1, “HIGH-PURITY ß-NICOTINAMIDE MONONUCLEOTIDE (NMN) AND METHOD FOR PRODUCING SAME” (MIRAILAB BIOSCIENCE INC., priority 2020, published 2023)
Each block holds one compound with its values, some of them ahead of it.

Columns and labels:
[1] = Stability of high-purity βNMN on preservation, purity by LC-UV area normalization; format: physicochemical; conditions: for Purity, Average value: three samples
Method: In the area normalization method based on LC-UV, a NMN sample is dissolved in an appropriate amount of water and subjected to LC-UV measurement at a detection wavelength of 266 nm using an apparatus, for example, LC-30AD (manufactured by Shimadzu Corp.). The ratio (%) of the area of the main component to the total area of chromatogram peaks of the obtained sample can be regarded as the purity (%) of βNMN. In the area normalization method based on LC-UV, the high-purity βNMN obtained in the section (5) was dissolved in an appropriate amount of water and subjected to LC-UV measurement under the following conditions. • Apparatus name: LC-30AD (manufactured by Shimadzu Corp.) • Detection wavelength: 266 nm The ratio (%) of the area of the main component to the total area of chromatogram peaks of the obtained sample was regarded as the purity (%) of βNMN. As a result, the purity of the high-purity βNMN obtained in the section (5) was 99.2%. The high-purity βNMN obtained in the section (5) was preserved at 4° C., 25° C., or 40° C. and examined for its stability. Each sample was provided as three samples per condition. The purity of βNMN in each sample during preservation, 1 month later, 2 months later, and 3 months later was measured by the area normalization method based on LC-UV.

[2] = Stability test on NMN produced by a conventional method (Comparative Examples); format: physicochemical
Excerpt: Results of a stability test on NMN produced by a conventional method (method involving neither the step IV nor the step V according to the present invention) are shown as Comparative Examples in Table 2.

Purity maintained on preservation ([1]; for 3 months at any temperature of 4° C., 25° C., and 40° C.): ≥ 99%
Purity, Average value ([1]; preserved at 4° C., 1 month later): 99.64%
Purity, Average value ([1]; preserved at 4° C., 2 months later): 99.51%
Purity, Average value ([1]; preserved at 4° C., 3 months later): 99.66%
Purity, Average value ([1]; preserved at 4° C., During preservation): 99.69%
Purity, Average value ([1]; preserved at 25° C., 1 month later): 99.26%
Purity, Average value ([1]; preserved at 25° C., 2 months later): 99.45%
Purity, Average value ([1]; preserved at 25° C., 3 months later): 99.57%
Purity, Average value ([1]; preserved at 25° C., During preservation): 99.69%
Purity, Average value ([1]; preserved at 40° C., 1 month later): 99.51%
Purity, Average value ([1]; preserved at 40° C., 2 months later): 99.27%
Purity, Average value ([1]; preserved at 40° C., 3 months later): 99.35%
Purity, Average value ([1]; preserved at 40° C., During preservation): 99.69%
SMILES: NC(=O)c1ccc[n+]([C@@H]2O[C@H](COP(=O)([O-])O)[C@@H](O)[C@H]2O)c1 [high-purity βNMN, β-nicotinamide mononucleotide]

Purity ([2]; 4° C., 1 day later): 97.92%
Purity ([2]; 4° C., 2 days later): 97.78%
Purity ([2]; 4° C., 3 days later): 97.60%
Purity ([2]; 4° C., 7 days later): 97.57%
Purity ([2]; 4° C., 15 days later): 97.54%
Purity ([2]; 4° C., 30 days later): 97.26%
Purity ([2]; 4° C., At start of preservation): 97.94%
Purity ([2]; 25° C., 1 day later): 97.11%
Purity ([2]; 25° C., 2 days later): 96.04%
Purity ([2]; 25° C., 3 days later): 95.98%
Purity ([2]; 25° C., 7 days later): 90.55%
Purity ([2]; 25° C., 15 days later): 81.74%
Purity ([2]; 25° C., 30 days later): 65.66%
Purity ([2]; 25° C., At start of preservation): 97.94%
SMILES: NC(=O)c1ccc[n+]([C@@H]2O[C@H](COP(=O)([O-])O)[C@@H](O)[C@H]2O)c1 [NMN produced by a conventional method, nicotinamide mononucleotide]
Stability in words ([2]; preserved at 4° C. for 30 days): able to maintain the purity obtained at the start of preservation for 30 days
